The values that follow come from paper PMC9072872, “Structure-based design of nucleoside-derived analogues as sulfotransferase inhibitors” (RSC Advances, 2019).

For experiment [1], the target named is T1, TPST1 (Homo sapiens, UniProt O60507).
T1 construct: Human TPST1 (residues Lys43-Leu360) enzyme was purified as a recombinant protein; made in house
T1 sequence (O60507 43-360): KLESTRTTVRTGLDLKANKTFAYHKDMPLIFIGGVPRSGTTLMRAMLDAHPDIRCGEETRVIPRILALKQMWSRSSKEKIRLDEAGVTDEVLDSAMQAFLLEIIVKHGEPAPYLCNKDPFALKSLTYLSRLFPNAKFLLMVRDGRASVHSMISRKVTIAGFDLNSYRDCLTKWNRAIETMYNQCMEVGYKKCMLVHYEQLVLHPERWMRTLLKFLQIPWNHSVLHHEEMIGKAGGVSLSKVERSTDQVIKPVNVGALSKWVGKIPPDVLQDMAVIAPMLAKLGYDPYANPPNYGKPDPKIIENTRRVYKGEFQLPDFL
Put plainly: Immunoblot of GST-CC4tide tyrosine sulfation by TPST1 (anti-sulfotyrosine antibody). The class given is biochemical. The following applies: compound 400 μM, GST-CC4-tide 1 μg, TPST1 0.2 μg, PAPS 5 μM, 15 min. The procedure: In order to further assess TPST1 inhibition by 2′-deoxy-PAP and compounds 1–14 using a complementary assay, immunoblotting of a TPST1 protein substrate (GST-CC4tide) was implemented with a monoclonal antibody that specifically recognises sulfotyrosine, using PAP as positive control (Fig. 5A). Compounds were screened at 400 μM in the assay. In common with the […] enzyme assay using a synthetic peptide, a broad range of inhibitory activities was observed.
Fig. 5 Immunological evaluation of TPST1 inhibition towards substrate and a Ser/Thr protein kinase counter-screen. (A) Immunoblots evaluating TPST1 sulfotransferase activity in the presence of a panel of PAP- and PAPS-mimetic compounds. […] After termination of the reaction using SDS-PAGE sample buffer, tyrosine sulfation was visualised by immunoblotting using a monoclonal sulfotyrosine antibody (top panel), with equal GST-CC4-tide and TPST1 loading confirmed using an antibody to detect 6xHis tagged proteins (bottom panel). (B) Enzymatic inhibition of PKA catalytic activity by a panel of PAP- and PAPS-mimetic compounds. PKA kinase (1 nM) was incubated with ATP (5 μM) in the presence of the appropriate nucleoside analogue (400 μM) for 30 min at 20 °C. PKA activity was calculated in real-time using fluorescently-labelled substrate peptide (2 μM) and normalised to DMSO (4% v/v) or buffer control.[77] Data in B is mean and SD of 3 individual experiments. Staurosporine is included at 40 μM as a generic inhibitor of kinase activity. […]
All standard laboratory biochemicals, were purchased from Sigma, and were of the highest analytical quality.
(§1) 5'-phosphosulfate, lithium salt hydrate, PAP (adenosine 3',5'-diphosphate, disodium salt), CoA (coenzymeA, sodium salt), ATP (adenosine 5’-triphosphate, disodium salt hydrate) were all purchased from Sigma and stored at -80 °C to minimise degradation.
(§2) Recombinant Protein Production and SDS-PAGE
(§3) Human TPST1 (residues Lys43-Leu360) enzyme was purified as a recombinant protein containing an N-terminal 6xHis tag as previously described. […]
pMAL-c2x plasmid encoding an N-terminal Maltose Binding Protein (MBP) affinity tag.6 Glutathione-S-transferase (GST) tagged CC4-tide ([…]) was cloned into pOPINJ (OPPF-UK) and […]
affinity purified from BL21 (DE3) pLysS E. coli using Glutathione-Sepharose 4B (GE Healthcare). 5 For SDS-PAGE, proteins were denatured in Laemmli sample buffer, heated at 95 °C for 5 min and then analysed by SDS-PAGE with 10% (v/v) polyacrylamide gels. Gels were stained and de-stained using a standard Coomassie Brilliant Blue protocol. To evaluate protein sulfation by immunoblotting, standard western blotting procedures were followed using monoclonal anti-sulfotyrosine ant ibody clone o-1C-A2 (Millipore) generated using a phage display procedure and sulfotyrosine selection peptide antigens7 in the presence of appropriate positive and negative controls, and modifications visua lised using ECL […]
Data was normalized […]
with respect to these control assays, with sulfate incorporation into the substr ate limited to ~ 20% to prevent depletion of PAPS and to ensure assay linearity. K m and IC50 values were determined by non-linear regression analysis with GraphPad Prism software. […]
A general note: A western blot detects proteins with antibodies after separation by electrophoresis.

The target of experiment [2] is T1, TPST1. Description: Microfluidic mobility shift sulfation assay, TPST1 (fluorescent CC4-tide substrate). The class given is biochemical. As to conditions: for IC50: read-out: IC50 against TPST1. The procedure:
(§4) Compounds were initially screened at 400 μM in the presence 20 nM HS2ST and 0.1 μM TPST1 respectively.
Fig. 4 Summary of enzymatic inhibition assays against HS2ST and TPST1. (A) Enzymatic analysis of HS2ST1 inhibition by a panel of PAP- and PAPS-mimetic compounds. […] HS2ST sulfotransferase activity was assayed using a fluorescent hexasaccharide substrate (2 μM) and normalised to DMSO (4% v/v) or buffer control. Data shown is mean and SD of 4 repeat experiments. (B) Full dose–response curves for selected compounds. […] HS2ST activity calculated as previously described. Data from two independent experiments are combined. (C) Enzymatic analysis of TPST1 inhibition by a panel of PAP- and PAPS-mimetic compounds. […] TPST1 activity was measured using fluorescently-labelled CC4-tide (2 μM) and normalised to DMSO (4% v/v) or buffer control. (D) Full dose–response curves for selected compounds. […] TPST1 activity was measured using CC4-tide and normalised to DMSO or buffer controls as previously described. The data shown is from duplicate experiments. […]
TPST1 peptide substrate (CC4-tide, 5-FAM-EDFED YEFDG-CONH2) was synthesised using solid-phase Fmoc chemistry (Pepceuticals, Leicester, UK). All standard laboratory biochemicals, were purchased from Sigma, and were of the highest analytical quality.
as §1, §2, §3
(§5) Microfluidics-Based Sulfation Assay
(§6) Non-radioactive microfluidic mobility shift peptide and carbohydrate sulfation assays were performed in solution with a 12-sipper chip coated with SR8 reagent and a Perkin Elmer EZ Reader II system 8 using an EDTA-based separation buffer and real-time kinetic evaluation of substrate sulfation. Pressure and voltage settings were adjusted manually to afford optimal separation of the sulfated product and non-sulfated substrate, with a sample (sip) volume of 20 nL, and total assay tim es appropriate for the experiment. The fluorophore tagged TPST1 peptide substrate and HS2ST1 glycan substrate where detected by the EZ Reader via LED-induced fluorescence.
(§7) Individual sulfation assays were assembled in a 384 well plate in a volume of 80 µL in the presence of […]
(§8) and 5 mM MgCl2. The degree of substrate sulfation was directly calculated using EZ Reader software by measuring the sulfo-product:non-sulfated substrate ratio at each time-point. The act ivity of the sulfotransferase enzymes in the presence of biochemicals and small molecule inhibitors was quantified in ‘kinetic mode’ by monitoring the amount of sulfated product generated over the assay time, relative to control assay with no additional inhibitor molecule (DMSO or buffer control). Data was normalized with respect to these control assays, with sulfate incorporation into the substr ate limited to ~ 20% to prevent depletion of PAPS and to ensure assay linearity. K m and IC50 values were determined by non-linear regression analysis with GraphPad Prism software. […]

The next experiment concerns the target T2, HS2ST (Gallus gallus, UniProt Q76KB1).
T2 construct: made in house; host or cells: E. coli Rosetta-gami (DE3)
T2 sequence (Q76KB1 1-356): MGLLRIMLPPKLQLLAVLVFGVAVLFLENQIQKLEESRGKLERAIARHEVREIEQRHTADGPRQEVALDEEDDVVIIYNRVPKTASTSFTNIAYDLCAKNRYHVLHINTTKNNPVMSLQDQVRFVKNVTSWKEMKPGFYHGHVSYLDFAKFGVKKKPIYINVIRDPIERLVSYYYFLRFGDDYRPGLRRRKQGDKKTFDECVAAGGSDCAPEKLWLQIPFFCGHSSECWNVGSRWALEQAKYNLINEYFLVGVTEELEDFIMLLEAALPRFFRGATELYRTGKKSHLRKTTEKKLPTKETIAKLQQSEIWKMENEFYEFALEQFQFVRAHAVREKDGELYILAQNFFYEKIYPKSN
Description: Microfluidic mobility shift sulfation assay, HS2ST (fluorescent hexasaccharide substrate). It counts as biochemical, chicken. The following applies: read-out: IC50 against HS2ST. As for the experimental part: as §4
Fig. 4 Summary of enzymatic inhibition assays against HS2ST and TPST1. (A) Enzymatic analysis of HS2ST1 inhibition by a panel of PAP- and PAPS-mimetic compounds. […] HS2ST sulfotransferase activity was assayed using a fluorescent hexasaccharide substrate (2 μM) and normalised to DMSO (4% v/v) or buffer control. Data shown is mean and SD of 4 repeat experiments. (B) Full dose–response curves for selected compounds. […] HS2ST activity calculated as previously described. Data from two independent experiments are combined. (C) Enzymatic analysis of TPST1 inhibition by a panel of PAP- and PAPS-mimetic compounds. […] TPST1 activity was measured using fluorescently-labelled CC4-tide (2 μM) and normalised to DMSO (4% v/v) or buffer control. (D) Full dose–response curves for selected compounds. […] TPST1 activity was measured using CC4-tide and normalised to DMSO or buffer controls as previously described. The data shown is from duplicate experiments.
N-sulfated, fluorescein-tagged HS2ST1 hexasaccharide glycan substrate (GlcNS-GlcA- GlcNS-IdoA-GlcNS-GlcA-fluorescein, where S=sulfation) containing L-IdoA at the third residue from the reducing end (to which a linker and the fluorophore were conjugated) was purchased from GLY CAN therapeutics. TPST1 peptide substrate (CC4-tide, 5-FAM-EDFED YEFDG-CONH2) was synthesised using solid-phase Fmoc chemistry (Pepceuticals, Leicester, UK). All standard laboratory biochemicals, were purchased from Sigma, and were of the highest analytical quality.
as §1
Recombinant Protein Production and SDS-PAGE […]
as §5, §6, §7, §8

Another experiment has as its system sulfotransferase. Also noted: method as in PMID 29934491, PMID 29934490. As to conditions: non nucleoside-derived; cited from earlier work.

Each structure is given as a SMILES string.

For `Nc1ncnc2c1ncn2[C@H]1C[C@H](OCC(=O)NO)[C@@H](COCC(=O)NO)O1` [Compound 3], the “suppression of tyrosine sulfation (immunoblot)” value (“suppression” below) on TPST1 [1] is given as “partial suppression”. Regarding `COC(=O)COC1CC(n2cnc3c(N)ncnc32)OC1COP(=O)(O)O` (stereo not drawn) [Compound 5], on TPST1 [1], the “suppression” value is recorded as “complete suppression”. Besides, the IC50 (in general, the concentration at which inhibition is half-maximal) on TPST1 [2] lay within 100 to 300 µM. In the same order, the values of `COC(=O)COC1CC(n2cnc3c(N)ncnc32)OC1COP(=O)(O)OCc1ccccc1` (stereo not drawn) [Compound 6] are “complete suppression” and 100 to 300 µM. On to `Nc1ncnc2c1ncn2[C@H]1C[C@H](O)[C@@H](Cn2cc(C(=O)O)nn2)O1` [Compound 7], for which the “suppression” value at TPST1 [1] is recorded as “did not show any activity”. In addition, the “inhibitory activity against TPST1” value on TPST1 [2] (compound 400 μM, TPST1 0.1 μM, PAPS 5 μM) was “showed activity”. In the case of `Nc1ncnc2c1ncn2[C@H]1C[C@H](OP(=O)(O)O)[C@@H](Cn2cc(C(=O)O)nn2)O1` [Compound 8], the 50% inhibitory concentration (IC50) on HS2ST is 100 to 300 µM. For the same compound, at TPST1 [1], the “suppression” value is “partial suppression”.

On to `Nc1ncnc2c1ncn2[C@H]1C[C@H](O)[C@@H](Cn2cc(C(=O)OCc3ccccc3)nn2)O1` [Compound 9], for which the IC50 at HS2ST is 100 to 300 µM. Moreover, the “suppression” value on TPST1 [1] is reported as “partial suppression”.

On to `Nc1ncnc2c1ncn2[C@@H]1O[C@H](COP(=O)(O)O)[C@@H](OP(=O)(O)O)[C@H]1O` [PAP, adenosine 3′,5′-diphosphate, reference compound], for which the IC50 turned out to be 2 µM at HS2ST and 1.5 µM on TPST1 [2]. As for `CC(=O)c1c(O)c(C)c(O)c(Cc2c(O)c3c(c(C(=O)/C=C/c4ccccc4)c2O)OC(C)(C)C=C3)c1O` [rottlerin], in the experiment with sulfotransferase, the sulfotransferase inhibitor potency result is “low/sub-micromolar”. As to `Cc1ccc(C(=O)Nc2ccc(S(=O)(=O)O)c3cc(S(=O)(=O)O)cc(S(=O)(=O)O)c23)cc1NC(=O)c1cccc(NC(=O)Nc2cccc(C(=O)Nc3cc(C(=O)Nc4ccc(S(=O)(=O)O)c5cc(S(=O)(=O)O)cc(S(=O)(=O)O)c45)ccc3C)c2)c1` [suramin], in the experiment on sulfotransferase, the sulfotransferase inhibitor potency result was “low/sub-micromolar”.
